ChEMBL document CHEMBL2375258, “Synthesis of (R)-norbgugaine and its potential as quorum sensing inhibitor against Pseudomonas aeruginosa” (Bioorg Med Chem Lett, 2013)
Calls of active or inactive are those of the source. The rule behind the calls is not given here.

Tests used:
Pseudomonas aeruginosa [1] = assay: Ratio of compound activity to salicylic acid activity for inhibition of quorum sensing system-mediated biofilm formation in Pseudomonas aeruginosa ATCC 27853
Pseudomonas aeruginosa [2] = assay: Inhibition of quorum sensing system in Pseudomonas aeruginosa ATCC 27853 assessed as inhibition of LasA at 0.1 to 0.5 mM relative to control
Pseudomonas aeruginosa [3] = assay: Inhibition of quorum sensing system in Pseudomonas aeruginosa ATCC 27853 assessed as inhibition of rhamnolipid production at 0.1 to 0.5 mM relative to control
Pseudomonas aeruginosa [4] = assay: Inhibition of quorum sensing system in Pseudomonas aeruginosa ATCC 27853 assessed as inhibition of biofilm formation at > 1.8 mM after 24 hrs by crystal violet staining method relative to control
Pseudomonas aeruginosa [5] = assay: Inhibition of quorum sensing system in Pseudomonas aeruginosa ATCC 27853 assessed as inhibition of […] pigmentation at 0.1 to 0.5 mM relative to control
Pseudomonas aeruginosa [6] = assay: Inhibition of quorum sensing system in Pseudomonas aeruginosa ATCC 27853 assessed as inhibition of twitching motility at 0.1 to 0.5 mM after 24 hrs relative to control
Pseudomonas aeruginosa [7] = assay: Inhibition of quorum sensing system in Pseudomonas aeruginosa ATCC 27853 assessed as inhibition of swimming motility at 0.1 to 0.5 mM after 24 hrs relative to control
Pseudomonas aeruginosa [8] = assay: Inhibition of quorum sensing system in Pseudomonas aeruginosa ATCC 27853 assessed as inhibition of swarming motility at 0.1 to 0.5 mM after 24 hrs relative to control
Pseudomonas aeruginosa [9] = assay: Antibacterial activity against Pseudomonas aeruginosa ATCC 27853 assessed as growth inhibition at 100 ug/mL measured every 2 hrs up to 20 hrs; format: functional, organism-based
Pseudomonas aeruginosa [10] = conditions: ATCC 27853, 4 mM
Description: Inhibition of quorum sensing system in Pseudomonas aeruginosa ATCC 27853 assessed as inhibition of biofilm formation at 4 mM after 24 hrs by crystal violet staining method relative to control

Compound | Ratio (Pseudomonas aeruginosa [1]) | inhibition (Pseudomonas aeruginosa [2]) | inhibition (Pseudomonas aeruginosa [3]) | inhibition (Pseudomonas aeruginosa [4]) | inhibition (Pseudomonas aeruginosa [5]) | inhibition (Pseudomonas aeruginosa [6]) | inhibition (Pseudomonas aeruginosa [7]) | inhibition (Pseudomonas aeruginosa [8]) | growth inhibition (GI) (Pseudomonas aeruginosa [9]) | inhibition (Pseudomonas aeruginosa [10])
CCCCCCCCCCCCCC[C@@H]1CCCN1 | 2 | 34% | 42% | 83% | 37% | 15% | 33% | 95% | inactive | 
O=C(O)c1ccccc1O |  |  |  |  |  | 35% | 40% | 60% |  | 48%
